According to the kinase profiling compilation of Christmann-Franck et al. (2016):

Key:
Assay in all cases: radiometric filter-binding kinase assay
[1] = system: PRKACA or PRKACB (cow); details: compound 10.0 µM; accession and sequence are those of the human protein
[2] = biological target: MAPK8 (human) (UniProt P45983); details: compound 10.0 µM; ATP 100 µM
[3] = biological target: LCK (human) (UniProt P06239); details: compound 10.0 µM; ATP 100 µM
[4] = biological target: MAPK14 (human) (UniProt Q16539); details: compound 10.0 µM; ATP 100 µM
MAPK14 (human), sequence (Q16539 whole entry, looked up): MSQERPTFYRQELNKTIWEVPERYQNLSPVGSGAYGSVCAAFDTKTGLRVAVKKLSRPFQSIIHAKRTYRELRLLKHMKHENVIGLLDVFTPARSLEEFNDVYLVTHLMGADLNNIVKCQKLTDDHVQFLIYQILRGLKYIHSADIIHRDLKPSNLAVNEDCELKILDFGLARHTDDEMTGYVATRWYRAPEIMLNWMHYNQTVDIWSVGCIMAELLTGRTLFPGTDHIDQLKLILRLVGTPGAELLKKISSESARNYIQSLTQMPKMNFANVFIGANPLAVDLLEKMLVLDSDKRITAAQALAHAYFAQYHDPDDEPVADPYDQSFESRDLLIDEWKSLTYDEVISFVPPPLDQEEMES

[5] = system: RPS6KB1 (human), P23443 [T412E]; details: compound 10.0 µM; ATP 100 µM
RPS6KB1 (human), P23443 [T412E], sequence (P23443 whole entry T412E, looked up): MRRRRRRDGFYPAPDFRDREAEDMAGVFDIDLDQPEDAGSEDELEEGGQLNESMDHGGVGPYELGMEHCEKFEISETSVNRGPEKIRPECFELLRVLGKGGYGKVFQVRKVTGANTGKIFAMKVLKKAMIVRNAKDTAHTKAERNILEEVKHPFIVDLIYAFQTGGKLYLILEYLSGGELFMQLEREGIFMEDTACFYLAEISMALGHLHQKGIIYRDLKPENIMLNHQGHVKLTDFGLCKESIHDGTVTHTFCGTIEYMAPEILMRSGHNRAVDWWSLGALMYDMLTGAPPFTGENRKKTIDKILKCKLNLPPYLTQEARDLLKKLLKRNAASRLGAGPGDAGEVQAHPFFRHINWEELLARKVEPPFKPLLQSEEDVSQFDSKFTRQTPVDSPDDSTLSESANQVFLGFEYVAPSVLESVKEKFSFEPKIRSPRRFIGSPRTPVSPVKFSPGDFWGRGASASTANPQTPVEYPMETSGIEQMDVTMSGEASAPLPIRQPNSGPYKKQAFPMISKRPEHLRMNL

[6] = system: PRKAA1 or PRKAA2 (rat); details: compound 10.0 µM; ATP 100 µM; accession and sequence are those of the human protein
[7] = biological target: MAPKAPK2 (human) (UniProt P49137); details: compound 10.0 µM; ATP 100 µM
MAPKAPK2 (human), sequence (P49137 whole entry, looked up): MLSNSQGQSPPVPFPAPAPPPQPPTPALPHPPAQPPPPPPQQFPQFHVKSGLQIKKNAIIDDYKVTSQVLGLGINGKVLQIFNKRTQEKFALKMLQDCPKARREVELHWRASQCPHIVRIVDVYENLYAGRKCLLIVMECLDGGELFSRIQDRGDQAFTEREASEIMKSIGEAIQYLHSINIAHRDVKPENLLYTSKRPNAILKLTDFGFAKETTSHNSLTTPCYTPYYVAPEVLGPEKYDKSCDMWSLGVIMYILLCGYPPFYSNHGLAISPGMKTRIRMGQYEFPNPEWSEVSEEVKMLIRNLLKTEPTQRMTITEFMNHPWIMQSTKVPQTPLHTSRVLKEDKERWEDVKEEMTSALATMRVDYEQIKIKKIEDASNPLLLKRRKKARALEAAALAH

[8] = biological target: PRKCA (human) (UniProt P17252); details: compound 10.0 µM; ATP 100 µM
[9] = biological target: CSK (human) (UniProt P41240); details: ATP 100 µM; for residual activity: compound 10.0 µM
[10] = biological target: AKT1 (human) (UniProt P31749); details: compound 10.0 µM; ATP 100 µM
[11] = system: SGK1 (human), O00141 [S422D]; details: compound 10.0 µM; ATP 100 µM
[12] = biological target: CDK2 CCNA2 (human) (UniProt P24941+P20248); details: compound 10.0 µM; ATP 100 µM
CDK2 CCNA2 (human), sequence (P20248 whole entry, looked up, other chains not shown): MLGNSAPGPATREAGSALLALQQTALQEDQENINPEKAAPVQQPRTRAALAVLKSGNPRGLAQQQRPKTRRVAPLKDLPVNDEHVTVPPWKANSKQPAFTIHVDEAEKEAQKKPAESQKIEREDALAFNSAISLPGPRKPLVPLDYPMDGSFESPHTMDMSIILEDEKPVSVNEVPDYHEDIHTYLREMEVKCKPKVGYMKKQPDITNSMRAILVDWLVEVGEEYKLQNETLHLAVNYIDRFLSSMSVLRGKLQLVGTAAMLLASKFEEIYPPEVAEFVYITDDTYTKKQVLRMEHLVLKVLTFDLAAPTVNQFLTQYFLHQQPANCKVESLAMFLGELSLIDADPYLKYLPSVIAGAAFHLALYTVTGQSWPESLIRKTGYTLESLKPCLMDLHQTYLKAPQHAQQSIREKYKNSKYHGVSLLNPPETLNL

[13] = biological target: MAPKAPK5 (human) (UniProt Q8IW41); details: compound 10.0 µM; ATP 100 µM
MAPKAPK5 (human), sequence (Q8IW41 whole entry, looked up): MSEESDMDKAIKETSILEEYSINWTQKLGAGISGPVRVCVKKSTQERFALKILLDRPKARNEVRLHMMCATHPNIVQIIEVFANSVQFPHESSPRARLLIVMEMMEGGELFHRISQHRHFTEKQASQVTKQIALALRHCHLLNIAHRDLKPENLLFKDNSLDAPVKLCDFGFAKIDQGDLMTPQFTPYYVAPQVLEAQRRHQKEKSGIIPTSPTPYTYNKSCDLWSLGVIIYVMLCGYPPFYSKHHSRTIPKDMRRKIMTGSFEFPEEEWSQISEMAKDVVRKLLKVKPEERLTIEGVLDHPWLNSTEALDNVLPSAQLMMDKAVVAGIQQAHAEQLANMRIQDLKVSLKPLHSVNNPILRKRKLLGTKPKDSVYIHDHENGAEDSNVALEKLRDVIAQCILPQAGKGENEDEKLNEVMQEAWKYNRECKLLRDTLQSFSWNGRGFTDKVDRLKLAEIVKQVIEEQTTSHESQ

[14] = system: MAPK1 (mouse); details: compound 10.0 µM; ATP 100 µM; accession and sequence are those of the human protein
[15] = system: PHKG1 or PHKG2 (rabbit); details: compound 10.0 µM; ATP 100 µM; accession and sequence are those of the human protein
[16] = biological target: MAPK12 (human) (UniProt P53778); details: compound 10.0 µM; ATP 100 µM
MAPK12 (human), sequence (P53778 whole entry, looked up): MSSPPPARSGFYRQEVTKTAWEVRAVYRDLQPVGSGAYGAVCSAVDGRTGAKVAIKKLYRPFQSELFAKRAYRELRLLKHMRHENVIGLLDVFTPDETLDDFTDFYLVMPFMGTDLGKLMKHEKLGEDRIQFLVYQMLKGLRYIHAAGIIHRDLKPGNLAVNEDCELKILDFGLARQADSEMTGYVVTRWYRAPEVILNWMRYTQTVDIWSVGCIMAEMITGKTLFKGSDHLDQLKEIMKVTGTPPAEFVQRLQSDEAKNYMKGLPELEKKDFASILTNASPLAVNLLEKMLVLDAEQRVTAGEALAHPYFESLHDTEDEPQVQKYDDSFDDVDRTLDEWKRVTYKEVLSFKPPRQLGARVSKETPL

[17] = system: DYRK1A (rat); details: compound 10.0 µM; ATP 100 µM; accession and sequence are those of the human protein
[18] = biological target: PDPK1 (human) (UniProt O15530); details: compound 10.0 µM; ATP 100 µM
PDPK1 (human), sequence (O15530 whole entry, looked up): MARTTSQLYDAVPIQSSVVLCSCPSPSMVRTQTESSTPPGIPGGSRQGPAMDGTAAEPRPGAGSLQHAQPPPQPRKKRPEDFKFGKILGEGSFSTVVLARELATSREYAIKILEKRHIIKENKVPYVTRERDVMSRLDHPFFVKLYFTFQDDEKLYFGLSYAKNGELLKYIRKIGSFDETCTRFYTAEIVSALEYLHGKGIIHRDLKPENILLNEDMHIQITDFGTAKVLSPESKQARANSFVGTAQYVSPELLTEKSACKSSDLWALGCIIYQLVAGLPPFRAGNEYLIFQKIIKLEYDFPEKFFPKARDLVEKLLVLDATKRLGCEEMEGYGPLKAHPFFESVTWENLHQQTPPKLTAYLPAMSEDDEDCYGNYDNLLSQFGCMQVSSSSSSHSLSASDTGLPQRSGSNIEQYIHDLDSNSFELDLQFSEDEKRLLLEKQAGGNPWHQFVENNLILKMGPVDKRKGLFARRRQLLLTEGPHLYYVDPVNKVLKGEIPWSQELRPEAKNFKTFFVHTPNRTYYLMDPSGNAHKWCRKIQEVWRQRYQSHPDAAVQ

[19] = biological target: GSK3B (human) (UniProt P49841); details: compound 10.0 µM; ATP 100 µM
GSK3B (human), sequence (P49841 whole entry, looked up): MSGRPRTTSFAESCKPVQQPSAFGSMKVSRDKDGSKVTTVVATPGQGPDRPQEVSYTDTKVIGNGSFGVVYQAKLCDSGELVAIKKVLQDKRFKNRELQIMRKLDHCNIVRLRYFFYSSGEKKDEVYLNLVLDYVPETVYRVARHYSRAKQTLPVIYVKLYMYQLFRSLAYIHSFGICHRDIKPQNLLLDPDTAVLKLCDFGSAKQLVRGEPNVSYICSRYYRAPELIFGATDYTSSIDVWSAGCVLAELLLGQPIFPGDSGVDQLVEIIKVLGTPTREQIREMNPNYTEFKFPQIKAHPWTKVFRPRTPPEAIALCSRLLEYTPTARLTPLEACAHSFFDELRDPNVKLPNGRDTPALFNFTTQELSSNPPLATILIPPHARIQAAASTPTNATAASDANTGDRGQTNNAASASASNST

[20] = biological target: CSNK2A1 or CSNK2A2 (human) (UniProt P19784+P68400); details: compound 10.0 µM; ATP 100 µM
[21] = biological target: RPS6KA5 KD1 KD2 (human) (UniProt O75582); details: compound 10.0 µM; ATP 100 µM
[22] = system: ROCK2 (rat); details: compound 10.0 µM; ATP 100 µM; accession and sequence are those of the human protein
[23] = system: CSNK1A1 (rat); details: ATP 100 µM, accession and sequence are those of the human protein; for residual activity: compound 10.0 µM
[24] = system: MAP2K1 (rabbit); details: compound 10.0 µM; ATP 100 µM; accession and sequence are those of the human protein
[25] = biological target: MAPK11 (human) (UniProt Q15759); details: compound 10.0 µM; ATP 100 µM
[26] = system: RPS6KA1 (rat); details: compound 10.0 µM; ATP 100 µM; accession and sequence are those of the human protein
[27] = biological target: MAPK13 (human) (UniProt O15264); details: compound 10.0 µM; ATP 100 µM
[28] = biological target: CHEK1 (human) (UniProt O14757); details: compound 10.0 µM; ATP 100 µM
CHEK1 (human), sequence (O14757 whole entry, looked up): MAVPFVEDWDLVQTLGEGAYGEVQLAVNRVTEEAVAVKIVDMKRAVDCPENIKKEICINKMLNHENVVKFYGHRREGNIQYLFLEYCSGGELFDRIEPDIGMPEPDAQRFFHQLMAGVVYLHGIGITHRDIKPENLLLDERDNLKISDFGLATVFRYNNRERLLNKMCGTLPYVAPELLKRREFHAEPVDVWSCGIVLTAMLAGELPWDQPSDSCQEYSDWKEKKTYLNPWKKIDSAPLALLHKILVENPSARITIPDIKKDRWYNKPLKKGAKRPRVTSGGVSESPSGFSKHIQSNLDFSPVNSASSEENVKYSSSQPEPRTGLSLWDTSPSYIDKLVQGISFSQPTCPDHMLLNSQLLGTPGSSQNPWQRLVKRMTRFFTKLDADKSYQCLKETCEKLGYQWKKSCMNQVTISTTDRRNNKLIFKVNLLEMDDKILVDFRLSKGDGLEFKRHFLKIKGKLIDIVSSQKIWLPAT

MAPK8 (human), sequence (P45983 whole entry, looked up): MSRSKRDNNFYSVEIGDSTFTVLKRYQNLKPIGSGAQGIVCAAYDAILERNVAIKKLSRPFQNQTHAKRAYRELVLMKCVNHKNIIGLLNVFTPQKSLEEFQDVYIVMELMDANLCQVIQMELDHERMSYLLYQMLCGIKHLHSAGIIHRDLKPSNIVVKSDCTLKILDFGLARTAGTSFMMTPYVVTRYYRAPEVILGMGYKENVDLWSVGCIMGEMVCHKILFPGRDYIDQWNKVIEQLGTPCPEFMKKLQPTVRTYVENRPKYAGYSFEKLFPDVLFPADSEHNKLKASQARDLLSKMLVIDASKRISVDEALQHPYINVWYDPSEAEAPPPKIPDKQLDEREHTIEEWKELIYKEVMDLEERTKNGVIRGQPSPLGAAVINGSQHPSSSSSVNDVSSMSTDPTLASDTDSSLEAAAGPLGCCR
LCK (human), sequence (P06239 whole entry, looked up): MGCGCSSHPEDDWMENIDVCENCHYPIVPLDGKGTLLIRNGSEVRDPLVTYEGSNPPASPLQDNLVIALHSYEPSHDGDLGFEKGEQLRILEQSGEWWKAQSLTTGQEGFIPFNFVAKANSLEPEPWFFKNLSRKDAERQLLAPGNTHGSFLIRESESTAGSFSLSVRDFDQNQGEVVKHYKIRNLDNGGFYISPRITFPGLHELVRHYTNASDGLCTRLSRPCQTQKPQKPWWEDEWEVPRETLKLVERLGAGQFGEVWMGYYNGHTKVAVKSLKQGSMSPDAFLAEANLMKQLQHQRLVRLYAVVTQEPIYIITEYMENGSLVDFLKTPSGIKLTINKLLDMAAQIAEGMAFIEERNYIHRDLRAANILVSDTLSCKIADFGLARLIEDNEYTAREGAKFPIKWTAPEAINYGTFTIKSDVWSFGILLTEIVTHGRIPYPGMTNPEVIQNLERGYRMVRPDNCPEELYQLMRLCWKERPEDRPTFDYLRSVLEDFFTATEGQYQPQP

SMILES | residual activity [1] [%] | residual activity [2] [%] | residual activity [5] [%] | residual activity [6] [%] | residual activity [7] [%] | residual activity [8] [%] | residual activity [9] [%] | residual activity [10] [%] | residual activity [11] [%] | residual activity [12] [%] | residual activity [13] [%] | residual activity [14] [%] | residual activity [15] [%] | residual activity [18] [%] | residual activity [19] [%] | residual activity [20] [%] | residual activity [21] [%] | residual activity [22] [%] | residual activity [24] [%] | residual activity [25] [%] | other results
O=C1Cc2c([nH]c3ccc([N+](=O)[O-])cc23)-c2ccccc2N1 | 79 | 89 | 64 | 36 | 40 | 93 | 90 | 61 | 42 | 5 | 78 | 64 | 77 | 41 | 4 | 67 | 98 | 45 | 96 | 64 | residual activity [3]: 19%; residual activity [4]: 79%; residual activity [16]: 55%; residual activity [17]: 102%; residual activity [23]: 86%
O=C1Cc2c([nH]c3ccc(Br)cc23)-c2ccccc2N1 | 109 | 128 | 117 | 72 | 110 | 120 | 86 | 86 | 92 | 22 | 83 | 70 | 110 | 52 | 6 | 99 | 92 | 53 | 103 | 108 | residual activity [26]: 86%; residual activity [16]: 87%; residual activity [27]: 104%; residual activity [17]: 116%; residual activity [23]: 99%; residual activity [28]: 65%
Nc1ncnc2c1cnn2-c1ccccc1 |  | 99 | 93 | 94 | 98 | 100 | 96 | 108 | 94 | 84 | 97 | 92 | 99 | 82 | 99 | 76 | 93 | 93 | 89 | 84 | residual activity [4]: 100%; residual activity [26]: 115%; residual activity [16]: 83%; residual activity [27]: 95%; residual activity [17]: 60%; IC50 [23]: 9.9 µM; residual activity [23]: 54%; residual activity [28]: 96%
CC[C@@H](CO)Nc1nc(NCc2ccccc2)c2ncn(C(C)C)c2n1 | 93 | 91 | 94 | 95 | 85 | 101 | 109 | 89 | 104 |  | 87 | 81 | 80 | 104 | 106 | 101 | 92 | 94 | 93 | 104 | residual activity [3]: 97%; residual activity [26]: 69%; residual activity [27]: 106%; residual activity [28]: 95%
CC(C)(C)n1nc(-c2ccc(Cl)cc2)c2c(N)ncnc21 | 74 | 98 | 70 | 84 | 106 | 66 | 3 | 77 | 111 | 68 | 85 | 61 | 93 | 99 | 113 | 90 | 57 | 75 | 55 | 26 | residual activity [4]: 21%; residual activity [26]: 114%; residual activity [16]: 90%; residual activity [27]: 96%; residual activity [17]: 94%; residual activity [23]: 6%; residual activity [28]: 93%
Cc1ccc(-c2nn(C(C)(C)C)c3ncnc(N)c23)cc1 | 76 | 98 | 43 | 93 | 96 | 80 | 3 | 97 | 94 | 75 | 85 | 75 | 70 | 97 | 86 | 96 | 55 | 65 | 52 | 22 | residual activity [3]: 0%; residual activity [4]: 13%; IC50 [9]: 0.52 µM; residual activity [26]: 69%; residual activity [27]: 102%; residual activity [17]: 101%; residual activity [23]: 8%; residual activity [28]: 91%
